# Measurements from US12691070B2, “Cationic lipids and preparation method thereof” (RiboX Therapeutics HK Limited, priority 2023, dated 2026).
# What was measured:
# [1] = LNP size and polydispersity index (PDI) by dynamic light scattering; format: physicochemical; conditions: for Size: in nm (unit assumed)
# Procedure, shortened: (§1)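 LNPs of ionizable lipid/DSPC/cholesterol/DMG-PEG 2000 (50:10:38.5:1.5) made by microfluidic mixing of luciferase circRNA or mRNA in pH 4.5 acetate with lipids in ethanol (3:1, 12 ml/min), ionizable lipid:nucleotide 15 or 6, then dialyzed against PBS. Size, PDI (DLS) and zeta potential on Zetasizer; encapsulation by Ribogreen ± Triton X-100.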
# BALB/C mice [2] = experiment: In vivo expression, whole-body luminescence (IVIS)
# Description: 6-8 week old, female BALB/C mice were injected with 0.05 mg*kg-1 of RNA-LNPs encoding for firefly-luciferase by intravenous injection. At 6 hours post injection, animals were intraperitoneally injected with 15 mg/ml of Luciferin substrate and whole-body luminescence was determined by a bioluminescent in vivo imaging system (IVIS).
# RAW 264.7 cells [3] = experiment: In vitro toxicity (CellTiter-Glo cell viability), RAW 264.7; format: cell-based;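 note: percent of untreated cells luminescence signal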
# Procedure, shortened: (§2)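 Cells were transfected with RNA-LNPs at 1 μg/mL and, 72 hours later, viability was measured by CellTiter-Glo luminescence. Values are cell viability calculated from the luminescence signal.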
# MCP-I = MCP-I cytokine elevation in serum; format: in vivo; conditions: cirRNA (SEQ ID NO: 1) LNPs, mice
# Description: 6-8 week old, female BALB/C mice were injected with 0.5 mg*kg-1 of RNA LNPs by intravenous injection. At 2 and 24 hours post injection, animals were bled and sera concentrations of MCP-I were determined by an immunoassay (Luminex).
# [4] = RNA encapsulation efficacy by Quant-IT Ribogreen kit; format: physicochemical; conditions: for Encapsulation Efficiency %: LNP with cirRNA (SEQ ID NO: 1); for Encapsulation Efficiency: LNP with mRNA (SEQ ID NO: 2)
# Procedure, shortened: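 Ribogreen fluorescence with and without Triton X-100 gave encapsulation as 100% − (intact/lysed) signal; DLS size, PDI and zeta potential measured on a Zetasizer. Particles: 50:10:38.5:1.5 lipid mix, luciferase circRNA or mRNA, lipid:nucleotide 15 or 6, microfluidic assembly at pH 4.5, PBS-dialyzed.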
# Hep G2 cells [5] = experiment: In vitro expression of firefly-luciferase, Hep G2; format: cell-based
# Procedure, shortened: (§3)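 Luminescence from cell lysates reports expression: luciferase activity was measured 72 h after transfection with 100 ng/mL RNA-LNPs encoding firefly luciferase.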
# [6] = tested on: Aspartate Aminotransferase (AST); experiment: Liver enzyme elevation in serum, AST; format: in vivo; conditions: cirRNA (SEQ ID NO: 1) LNPs, BALB/C mice, intravenous 0.5 MPK
# Description: (§4) 6-8 week old, female BALB/C mice were injected with 0.5 mg*kg-1 of RNA LNPs by intravenous injection. At 2 and 24 hours post injection, animals were bled and sera concentrations of Alanine Aminotransferase (ALT) and Aspartate Aminotransferase (AST) were determined by a blood chemistry analyzer.
# [7] = tested on: Alanine Aminotransferase (ALT); experiment: Liver enzyme elevation in serum, ALT; format: in vivo; conditions: cirRNA (SEQ ID NO: 1) LNPs, BALB/C mice, intravenous 0.5 MPK
# Description: as §4
# [8] = LNP zeta potential (Zetasizer); format: physicochemical
# Procedure, shortened: as §1
# RAW 264.7 cells [9] = experiment: In vitro expression of firefly-luciferase, RAW 264.7; format: cell-based
# Procedure, shortened: as §3
# Hep G2 cells [10] = experiment: In vitro toxicity (CellTiter-Glo cell viability), Hep G2; format: cell-based;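 note: percent of untreated cells luminescence signal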
# Procedure, shortened: as §2
# BALB/C mice [11] = experiment: Local tolerance determination by footpad injection; format: in vivo; conditions: cirRNA (SEQ ID NO: 1) LNP, 0.175 mg*kg-1 subcutaneous into the footpad, 24 hours post minus prior
# Description: 6-8 week old, female BALB/C mice were injected with 0.175 mg*kg-1 RNA LNPs by subcutaneous injection into the footpad. Prior to, and 24 hours post injections, injected footpad thickness was determined by a caliper.
# [12] = cirRNA (SEQ ID NO: 1) LNPs, BALB/C mice
# [13] = mRNA (SEQ ID NO: 2) LNP, 0.05 mg*kg-1 intravenous, 6 hours post injection
# [14] = cirRNA (SEQ ID NO: 1) LNPs, RAW 264.7 cells
# [15] = mRNA (SEQ ID NO: 2) LNP, 1 μg/mL, 72 hours post transfection
# [16] = cirRNA (SEQ ID NO: 1) LNPs, firefly-luciferase luminescence, Hep G2 cells
# [17] = mRNA (SEQ ID NO: 2) LNP, 100 ng/mL, 72 hours post transfection, luciferase activity
# [18] = cirRNA (SEQ ID NO: 1) LNPs, firefly-luciferase luminescence, RAW 264.7 cells
# [19] = cirRNA (SEQ ID NO: 1) LNPs, Hep G2 cells
SMILES,PDI ([1]; LNP with cirRNA (SEQ ID NO: 1)),Size ([1]; LNP with cirRNA (SEQ ID NO: 1)),PDI ([1]; LNP with mRNA (SEQ ID NO: 2)),Size ([1]; LNP with mRNA (SEQ ID NO: 2)),In vivo Expression (Whole Body) (BALB/C mice [2]; [12]),In vivo Expression (Whole Body) (BALB/C mice [2]; [13]),In vitro Viability RAW (RAW 264.7 cells [3]; [14]) [%],In vitro Viability RAW (RAW 264.7 cells [3]; [15]) [%],MCP-I in Sera 2 hours After 0.5 MPK Injection (MCP-I) [pg/mL],MCP-I in Sera 24 hours After 0.5 MPK Injection (MCP-I) [pg/mL],Encapsulation Efficiency % [4] [%],Encapsulation Efficiency [4] [%],In vitro Expression HepG2 (Hep G2 cells [5]; [16]),In vitro Expression HepG2 (Hep G2 cells [5]; [17]),AST in Sera (IU/L) 2 hours After 0.5 MPK Injection [6] [IU/L],AST in Sera (IU/L) 24 hours After 0.5 MPK Injection [6] [IU/L],ALT in Sera (IU/L) 2 hours After 0.5 MPK Injection [7] [IU/L],ALT in Sera (IU/L) 24 hours After 0.5 MPK Injection [7] [IU/L],Zeta (mV) ([8]; LNP with cirRNA (SEQ ID NO: 1)),Zeta (mV) ([8]; LNP with mRNA (SEQ ID NO: 2)),other results
CCCCCCCCC(CCCCCCCC)OC(=O)CCCCCCCN(CCCCCCCCOC(=O)C(CCCCCC)CCCCCCCC)CCCOC(=O)NCCN(C)C (stereo not drawn) [Lipid 344],0.1332,98.08,0.1063,97.82,7.43E+07,2.15E+09,94,88,7150.00,946.87,97,93.45,1.08E+07,8.78E+07,333.67,340.00,161.67,204.33,2.343,1.967,"In vitro Expression RAW (RAW 264.7 cells [9]; [18]): 1.97E+06; In vitro Expression RAW (RAW 264.7 cells [9]; [17]): 1.59E+07; In vitro Viability HepG2 (Hep G2 cells [10]; [19]): 96%; In vitro Viability HepG2 (Hep G2 cells [10]; [15]): 78%; Footpad Thickness (24 h−0 h, mm) (BALB/C mice [11]): 0.53 mm"
CCCCCCCCC(CCCCCCCC)OC(=O)CCCCCCCN(CCCCCCCCOC(=O)C(CCCCCC)CCCCCCCC)CCCOC(=O)NCCCN(C)C (stereo not drawn) [Lipid 348],0.2546,100.8,0.1488,101.8,6.47E+07,1.87E+07,73,77,1894.33,128.60,98,83.15,1.59E+06,1.45E+07,307.00,148.00,82.33,96.33,1.734,8.774,"In vitro Expression RAW (RAW 264.7 cells [9]; [18]): 2.47E+05; In vitro Expression RAW (RAW 264.7 cells [9]; [17]): 2.52E+03; In vitro Viability HepG2 (Hep G2 cells [10]; [19]): 65%; In vitro Viability HepG2 (Hep G2 cells [10]; [15]): 60%; Footpad Thickness (24 h−0 h, mm) (BALB/C mice [11]): 0.78 mm"
CCCCCCCCC(CCCCCCCC)OC(=O)CCCCCCCN(CCCCCCCCOC(=O)C(CCCCCC)CCCCCCCC)CCCOC(=O)NCCN1CCCC1 (stereo not drawn) [Lipid 350],0.1717,112.8,0.1151,105.3,1.03E+08,5.29E+08,74,86,6084.33,2039.50,97,83.19,1.43E+07,4.34E+07,368.00,362.67,105.67,121.33,6.91,0.9211,"In vitro Expression RAW (RAW 264.7 cells [9]; [18]): 3.38E+06; In vitro Expression RAW (RAW 264.7 cells [9]; [17]): 5.78E+06; In vitro Viability HepG2 (Hep G2 cells [10]; [19]): 95%; In vitro Viability HepG2 (Hep G2 cells [10]; [15]): 111%; Footpad Thickness (24 h−0 h, mm) (BALB/C mice [11]): 0.55 mm"
CCCCCCCCC(CCCCCCCC)OC(=O)CCCCCCCN(CCCCCCCCOC(=O)C(CCCCCC)CCCCCCCC)CCCOC(=O)NCCN1CCCCC1 (stereo not drawn) [Lipid 351],0.1705,99.16,0.3512,178.8,1.35E+08,1.71E+08,98,94,3172.67,1133.74,95,66.39,1.87E+06,1.00E+07,232.67,389.33,74.33,149.33,−0.1951,−4.142,"In vitro Expression RAW (RAW 264.7 cells [9]; [18]): 6.44E+05; In vitro Expression RAW (RAW 264.7 cells [9]; [17]): 3.41E+06; In vitro Viability HepG2 (Hep G2 cells [10]; [19]): 96%; In vitro Viability HepG2 (Hep G2 cells [10]; [15]): 87%; Footpad Thickness (24 h−0 h, mm) (BALB/C mice [11]): 0.68 mm"
CCCCCCCCC(CCCCCCCC)OC(=O)CCCCCCCN(CCCCCCCCOC(=O)C(CCCCCC)CCCCCCCC)CCCOC(=O)NCCN1CCCCCC1 (stereo not drawn) [Lipid 354],0.1505,98.03,0.2144,128.6,6.08E+08,7.55E+08,45,65,5469.33,1348.89,96,71.30,1.63E+06,7.47E+06,287.33,411.00,97.67,192.50,−2.263,−0.3781,"In vitro Expression RAW (RAW 264.7 cells [9]; [18]): 4.53E+05; In vitro Expression RAW (RAW 264.7 cells [9]; [17]): 1.10E+06; In vitro Viability HepG2 (Hep G2 cells [10]; [19]): 119%; In vitro Viability HepG2 (Hep G2 cells [10]; [15]): 104%; Footpad Thickness (24 h−0 h, mm) (BALB/C mice [11]): 0.80 mm"
CCCCCCCCCCC(CCCCCCCC)COC(=O)CCCCCN(CCCCCC(=O)OCC(CCCCCCCC)CCCCCCCCCC)CCCOC(=O)NCCN1CCCC1 (stereo not drawn) [Lipid 369],0.1084,93.14,0.1166,120.9,1.30E+07,6.54E+08,61,90,6463.00,1338.00,97,92.99,1.04E+06,7.28E+07,364.00,290.00,158.00,121.00,4.427,10,"In vitro Expression RAW (RAW 264.7 cells [9]; [18]): 1.84E+05; In vitro Expression RAW (RAW 264.7 cells [9]; [17]): 2.18E+07; In vitro Viability HepG2 (Hep G2 cells [10]; [19]): 78%; In vitro Viability HepG2 (Hep G2 cells [10]; [15]): 94%; Footpad Thickness (24 h−0 h, mm) (BALB/C mice [11]): 0.57 mm"
